# Patent US10195185B2, “3-(1H-imidazo[4,5-C]pyridin-2-yl)-1H-pyrazolo[4,3-B]pyridines and therapeutic uses thereof” (Samumed, LLC, priority 2015, dated 2019)
# Key:
# [1] = system: Wnt activity (Wnt-responsive human Sp5 promoter, TCF/LEF binding sites) in SW480 colon carcinoma cells; assay: Wnt activity screening assay: Sp5-Luc luciferase reporter gene in SW480 cells; format: cell-based; conditions: for EC50: 10-point dose-response from 10 μM, incubated overnight; for inhibition at 10 µM: given for EC50 of >10 μM, read-out: percent inhibition at 10 μM
# Outline: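 Luminescence (BrightGlo) was normalised to DMSO-only wells and fitted with a four-parameter variable-slope model for EC50; beyond 10 μM, % inhibition at 10 μM is given. Stable Sp5-Luc SW480 reporter cells, 4,000/well in 1% FBS, were exposed overnight at 37 °C to compounds, top 10 μM, 1:3 dilutions, 0.1% DMSO.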
# SW480 colon cancer cells = assay: Cell viability assay (CellTiter-Blue), four days; format: cell-based; conditions: Homo sapiens, 96 h; for inhibition at 10 µM: read-out: percent inhibition at 10 μM (given for EC50 of >10 μM); for EC50: CellTiter-Blue cell viability
# Outline: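 SW480 cells (~2×10^3 per well) were exposed to compound for four days at 37 °C/5% CO2, using 8-point 1:3 dilutions from 10 μM to 0.0045 μM in duplicate. Viability was read by resazurin reduction (CellTiter-Blue, ~3 h, Ex 560/Em 590 nm). EC50 came from non-linear regression; above 10 μM, percent inhibition at 10 μM is given.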
SMILES,EC50 [1] [µM],EC50 (SW480 colon cancer cells) [µM],inhibition at 10 µM [1] [%],inhibition at 10 µM (SW480 colon cancer cells) [%]
"CS(=O)(=O)NCc1cc(F)cc(-c2nccc3[nH]c(-c4n[nH]c5ccc(-c6cncc(NC(=O)CC7CCNCC7)c6)nc45)nc23)c1 [Compound 769, N-(5-(3-(4-(3-Fluoro-5-(methylsulfonamidomethyl)phenyl)-1H-imidazo[4,5-c]pyridin-2-yl)-1H-pyrazolo[4,3-b]pyridin-5-yl)pyridin-3-yl)-2-(piperidin-4-yl)acetamide]",> 10,> 10,9.8,7.7
"Fc1ccccc1-c1nccc2[nH]c(-c3n[nH]c4ccc(-c5ccccn5)nc34)nc12 [Compound 84, 3-(4-(2-Fluorophenyl)-1H-imidazo[4,5-c]pyridin-2-yl)-5-(pyridin-2-yl)-1H-pyrazolo[4,3-b]pyridine]",0.384,> 10,–,0
"O=C(Nc1cncc(-c2ccc3[nH]nc(-c4nc5cnccc5[nH]4)c3n2)c1)C1CCCCC1 [Compound 275, N-(5-(3-(1H-Imidazo[4,5-c]pyridin-2-yl)-1H-pyrazolo[4,3-b]pyridin-5-yl)pyridin-3-yl)cyclohexanecarboxamide]",> 10,> 10,0,0
"c1cc(-c2ccc3[nH]nc(-c4nc5c(-c6ccncc6)nccc5[nH]4)c3n2)ccn1 [Compound 130, 5-(pyridin-4-yl)-3-(4-(pyridin-4-yl)-1H-imidazo[4,5-c]pyridin-2-yl)-1H-pyrazolo[4,3-b]pyridine]",> 10,> 10,7.5,0
"O=C(Nc1cncc(-c2ccc3[nH]nc(-c4nc5c(-c6ccccn6)nccc5[nH]4)c3n2)c1)c1ccccc1 [Compound 151, N-(5-(3-(4-(Pyridin-2-yl)-1H-imidazo[4,5-c]pyridin-2-yl)-1H-pyrazolo[4,3-b]pyridin-5-yl)pyridin-3-yl)benzamide]",> 10,> 10,9.9,1.6
"c1cc2[nH]c(-c3n[nH]c4ccc(C5CCNCC5)nc34)nc2c(-c2ccc3c(c2)OCO3)n1 [Compound 1108, 3-(4-(Benzo[d][1,3]dioxol-5-yl)-1H-imidazo[4,5-c]pyridin-2-yl)-5-(piperidin-4-yl)-1H-pyrazolo[4,3-b]pyridine]",> 10,> 10,11,3.8
"CC(C)(C)CC(=O)Nc1cncc(-c2ccc3[nH]nc(-c4nc5c(-c6ccccc6F)nccc5[nH]4)c3n2)c1 [Compound 72, N-(5-(3-(4-(2-fluorophenyl)-1H-imidazo[4,5-c]pyridin-2-yl)-1H-pyrazolo [4,3-b]pyridin-5-yl)pyridin-3-yl)-3,3-dimethylbutanamide]",> 10,> 10,8.1,4.1
"Cn1cc(-c2ccc3[nH]nc(-c4nc5c(-c6ccc(F)cc6)nccc5[nH]4)c3n2)c(CO)n1 [Compound 1128, (4-(3-(4-(4-Fluorophenyl)-1H-imidazo[4,5-c]pyridin-2-yl)-1H-pyrazolo[4,3-b]pyridin-5-yl)-1-methyl-1H-pyrazol-3-yl)methanol]",> 10,> 10,19.6,9.1
"CN(C)CCNc1cc(F)cc(-c2nccc3[nH]c(-c4n[nH]c5ccc(-c6cnccn6)nc45)nc23)c1 [Compound 792, N^1-(3-Fluoro-5-(2-(5-(pyrazin-2-yl)-1H-pyrazolo[4,3-b]pyridin-3-yl)-1H-imidazo[4,5-c]pyridin-4-yl)phenyl)-N^2,N^2-dimethylethane-1,2-diamine]",> 10,> 10,36.2,22.1

# Second part, led by results:
EC50 [1] [µM],EC50 (SW480 colon cancer cells) [µM],SMILES,inhibition at 10 µM [1] [%],inhibition at 10 µM (SW480 colon cancer cells) [%]
> 10,> 10,"COc1cccc(-c2nccc3[nH]c(-c4n[nH]c5ccc(-c6cncc(NC(=O)CC(C)(C)C)c6)nc45)nc23)c1 [Compound 1006, N-(5-(3-(4-(3-methoxyphenyl)-1H-imidazo[4,5-c]pyridin-2-yl)-1H-pyrazolo [4,3-b]pyridin-5-yl)pyridin-3-yl)-3,3-dimethylbutanamide]",16.6,0
0.211,0.624,"Cc1ncc(-c2ccc3[nH]nc(-c4nc5c(-c6ccoc6)nccc5[nH]4)c3n2)n1C [Compound 685, 5-(1,2-Dimethyl-1H-imidazol-5-yl)-3-(4-(furan-3-yl)-1H-imidazo[4,5-c]pyridin-2-yl)-1H-pyrazolo[4,3-b]pyridine]",–,–
> 10,> 10,"COc1cccc(-c2nccc3[nH]c(-c4n[nH]c5ccc(-c6cncc(O)c6)nc45)nc23)c1 [Compound 1030, 5-(3-(4-(3-Methoxyphenyl)-1H-imidazo[4,5-c]pyridin-2-yl)-1H-pyrazolo [4,3-b]pyridin-5-yl)pyridin-3-ol]",14.1,6
0.745,1.57,"COc1cncc(-c2ccc3[nH]nc(-c4nc5c(-c6ccoc6)nccc5[nH]4)c3n2)c1 [Compound 692, 3-(4-(Furan-3-yl)-1H-imidazo[4,5-c]pyridin-2-yl)-5-(5-methoxypyridin-3-yl)-1H-pyrazolo[4,3-b]pyridine]",–,–
3.83,4.3,"c1cc2[nH]c(-c3n[nH]c4ccc(-c5cncc(OCCN6CCCC6)c5)nc34)nc2c(-c2ccoc2)n1 [Compound 690, 3-(4-(Furan-3-yl)-1H-imidazo[4,5-c]pyridin-2-yl)-5-(5-(2-(pyrrolidin-1-yl)ethoxy)pyridin-3-yl)-1H-pyrazolo[4,3-b]pyridine]",–,–
> 10,> 10,"CN1CCN(c2nccc3[nH]c(-c4n[nH]c5ccc(-c6cncnc6)nc45)nc23)CC1 [Compound 251, 3-(4-(4-Methylpiperazin-1-yl)-1H-imidazo[4,5-c]pyridin-2-yl)-5-(pyrimidin-5-yl)-1H-pyrazolo[4,3-b]pyridine]",17.7,0
1.04,> 10,"Cc1ccc(-c2nccc3[nH]c(-c4n[nH]c5ccc(-c6cncc(OC7CCCCC7)c6)nc45)nc23)s1 [Compound 735, 5-(5-(Cyclohexyloxy)pyridin-3-yl)-3-(4-(5-methylthiophen-2-yl)-1H-imidazo[4,5-c]pyridin-2-yl)-1H-pyrazolo[4,3-b]pyridine]",–,0
4.41,> 10,"CN(C)CCNc1cc(F)cc(-c2nccc3[nH]c(-c4n[nH]c5ccc(-c6cncc(OCCN7CCCC7)c6)nc45)nc23)c1 [Compound 786, N^1-(3-Fluoro-5-(2-(5-(5-(2-(pyrrolidin-1-yl)ethoxy)pyridin-3-yl)-1H-pyrazolo[4,3-b]pyridin-3-yl)-1H-imidazo[4,5-c]pyridin-4-yl)-5phenyl)-N^2,N^2-dimethylethane-1,2-diamine]",–,15.9
> 10,> 10,"O=C(Nc1cncc(-c2ccc3[nH]nc(-c4nc5c(-c6ccccc6F)nccc5[nH]4)c3n2)c1)C1CCCC1 [Compound 78, N-(5-(3-(4-(2-Fluorophenyl)-1H-imidazo[4,5-c]pyridin-2-yl)-1H-pyrazolo [4,3-b]pyridin-5-yl)pyridin-3-yl)cyclopentanecarboxamide]",14.8,19.8
0.837,5.88,"Cn1cc(-c2ccc3[nH]nc(-c4nc5c(-c6cc(F)cc(CNS(C)(=O)=O)c6)nccc5[nH]4)c3n2)cn1 [Compound 764, N-(3-Fluoro-5-(2-(5-(1-methyl-1H-pyrazol-4-yl)-1H-pyrazolo [4,3-b]pyridin-3-yl)-1H-imidazo[4,5-c]pyridin-4-yl)benzyl)methanesulfonamide]",–,–
